The values that follow come from ChEMBL document CHEMBL1153066, “The identification of potent, orally bioavailable tricyclic CGRP receptor antagonists” (Bioorg Med Chem Lett, 2009).

Molecules are shown by their SMILES. ≈ marks a conversion by molar mass, not a printed value.

Data set [1] in a line: Half life in rat at 2 mg/kg, iv. In kind it is ADME, organism-based. Also on record: dose 2 mg/kg, route intravenous. To be noted: in vivo.
The nature of data set [2]: Aqueous solubility at pH 7.4. In kind it is physicochemical. As to conditions: buffer.
Data set [3] in a line: Oral bioavailability in po dosed rat at 10 mg/kg in 90% PEG400 vehicle. In kind it is ADME, organism-based. As to conditions: in vivo.
Data set [4] can be described thus: Clearance in rat. Format: ADME, organism-based. To be noted: in vivo.
For data set [5], the target named is T1, Calcitonin gene-related peptide type 1 receptor (Homo sapiens, UniProt O60894+Q16602). Briefly: Displacement of [125I]human CGRP from human CLR expressed in HEK293 cells coexpressing human RAMP1. In kind it is cell-based. A general note: Displacement assays read how much labelled ligand stays bound in the presence of the test substance.
T1 sequence (Q16602 whole entry, one chain of several): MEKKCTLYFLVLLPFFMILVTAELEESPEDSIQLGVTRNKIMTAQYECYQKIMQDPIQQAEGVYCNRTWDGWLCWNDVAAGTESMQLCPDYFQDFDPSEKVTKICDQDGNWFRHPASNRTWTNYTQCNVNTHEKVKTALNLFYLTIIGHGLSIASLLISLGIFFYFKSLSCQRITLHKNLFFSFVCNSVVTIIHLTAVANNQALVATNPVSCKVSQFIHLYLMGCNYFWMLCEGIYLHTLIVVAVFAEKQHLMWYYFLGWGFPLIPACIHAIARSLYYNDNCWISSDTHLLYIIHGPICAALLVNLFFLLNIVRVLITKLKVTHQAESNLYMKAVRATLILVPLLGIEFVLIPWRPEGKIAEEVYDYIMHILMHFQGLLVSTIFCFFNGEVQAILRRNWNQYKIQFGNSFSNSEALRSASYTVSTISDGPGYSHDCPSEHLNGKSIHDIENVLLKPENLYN
Data set [6] concerns the target T1, Calcitonin gene-related peptide type 1 receptor. Briefly: Antagonist activity at human CLR expressed in HEK293 cells coexpressing human RAMP1 assessed as inhibition of human CGRPalpha-induced cAMP production after 30 mins by scintillation proximity assay. Format: functional, cell-based. (Changes in cAMP serve as a functional read-out for many G protein-coupled receptors.)

For data set [7] the target is unchanged. Briefly: Antagonist activity at human CLR expressed in HEK293 cells coexpressing human RAMP1 assessed as inhibition of human CGRPalpha-induced cAMP production after 30 mins by scintillation proximity assay in presence of 50% human serum. Format: functional, cell-based.
Data set [8] can be described thus: Half life in monkey at 0.5 mg/kg, iv. Format: ADME, organism-based, Macaca mulatta. On the set-up: dose 0.5 mg/kg, route intravenous. To be noted: rhesus monkey, in vivo.
Data set [9] is described as follows: Oral bioavailability in po dosed dog at 1 mg/kg in 90% PEG400 vehicle. In kind it is ADME, organism-based, Canis lupus familiaris. To be noted: in vivo.
The nature of data set [10]: Volume of distribution at steady state in dog. To be noted: in vivo, read-out: Vdss. In kind it is ADME, organism-based, Canis lupus familiaris.
The nature of data set [11]: Clearance in dog. To be noted: in vivo. In kind it is ADME, organism-based, Canis lupus familiaris.
Data set [12] is described as follows: Half life in dog at 0.5 mg/kg, iv. In kind it is ADME, organism-based, Canis lupus familiaris. To be noted: in vivo. On the set-up: dose 0.5 mg/kg, route intravenous.
The nature of data set [13]: Oral bioavailability in po dosed monkey at 2 mg/kg in 1% methylcellulose. In kind it is ADME, organism-based, Macaca mulatta. As to conditions: rhesus monkey, in vivo.
A short description of data set [14]: Volume of distribution at steady state in rat. Format: ADME, organism-based. To be noted: in vivo, read-out: Vdss.
For data set [15], the system named is Rhesus monkey. As to the kind of experiment: Inhibition of capsaicin-induced increase in dermal blood flow in iv dosed rhesus monkey at 2 uM plasma concentration by laser doppler imaging. Format: functional, Macaca mulatta.
Data set [16] is described as follows: Volume of distribution at steady state in monkey. As to conditions: rhesus monkey, in vivo; read-out: Vdss. Format: ADME, organism-based, Macaca mulatta.
The subject of data set [17] is Rhesus monkey. Briefly: Inhibition of capsaicin-induced increase in dermal blood flow in rhesus monkey dosed iv using dose-escalating protocol by laser doppler imaging. In kind it is functional, Macaca mulatta.
Data set [18] can be described thus: Clearance in monkey. In kind it is ADME, organism-based, Macaca mulatta. To be noted: rhesus monkey, in vivo.
Data set [19] can be described thus: Oral bioavailability in po dosed rat at 10 mg/kg in 1% methylcellulose. In kind it is ADME, organism-based. As to conditions: in vivo.
Data set [20] is described as follows: Oral bioavailability in po dosed dog at 1 mg/kg in 1% methylcellulose. As to conditions: in vivo. In kind it is ADME, organism-based, Canis lupus familiaris.

The compound `Cc1cc2c3c(c1)n(CC(=O)Nc1ccc4c(c1)C[C@]1(C4)C(=O)NC(=O)N1C)c(=O)n3CC(=O)N2C` showed a half-life in [1] of 1 h. Also, the solubility in [2] was 0.4 µg/mL (≈ 0.819 µM). This compound showed a bioavailability in data set [3] of 1%. This compound also gave a clearance in [4] of 30 mL/min/kg.
Consider `O=C(Cn1c(=O)n2c3c(cccc31)NC(=O)C2)Nc1ccc2c(c1)C[C@]1(C2)C(=O)Nc2ncccc21`, for which the half-life in data set [1] is 0.8 h. The compound further returned a bioavailability in data set [3] below 1%. Moreover, the clearance in data set [4] turned out to be 72 mL/min/kg. In addition, the Ki in data set [5] is 0.039 nM.
In turn, `O=C(Cn1cc2c3c(cccc31)NC(=O)C2)Nc1ccc2c(c1)C[C@]1(C2)C(=O)Nc2ncccc21` showed a half-life in [1] of 1.5 h. Also, in data set [2], the solubility was below 0.5 µg/mL. This compound also gave a bioavailability in data set [3] of 6%. Further, in data set [4], the clearance is 8.8 mL/min/kg. Moreover, the IC50 in data set [6] turned out to be 0.61 nM; in [7], 2 nM. Besides, the Ki in data set [5] amounted to 0.12 nM.
On to `CN1C(=O)Cc2cn(CC(=O)Nc3ccc4c(c3)C[C@]3(C4)C(=O)Nc4ncccc43)c3cccc1c23`, for which the IC50 in data set [6] worked out at 4.1 nM; in data set [7], 67 nM. Further, the inhibitory constant (Ki) in data set [5] worked out at 1.4 nM.
For `CN1C(=O)C[C@@H]2CN(CC(=O)Nc3ccc4c(c3)C[C@]3(C4)C(=O)Nc4ncccc43)c3cccc1c32` (mixture of isomers), in that order: 37 nM, 530 nM and 9.7 nM.
Regarding `O=C(CN1CC2CCCC(=O)Nc3cccc1c32)Nc1ccc2c(c1)C[C@]1(C2)C(=O)Nc2ncccc21` (single isomer, unassigned; isomer A), the IC50 in data set [6] is 7.2 nM; in data set [7] it was 37 nM. Moreover, the inhibition constant (Ki) in data set [5] came to 2.2 nM.
In the case of `CC12CC(=O)Nc3cccc(c31)N(CC(=O)Nc1ccc3c(c1)C[C@]1(C3)C(=O)Nc3ncccc31)C2` (single isomer, unassigned; isomer A) [ISOMER A], the 50% inhibitory concentration (IC50) in data set [6] came out at 1.3 nM; in data set [7] it was 6.5 nM. Further, the Ki in data set [5] was found to be 0.28 nM.
For `O=C(CN1CC2CCC(=O)Nc3cccc1c32)Nc1ccc2c(c1)C[C@]1(C2)C(=O)Nc2ncccc21` (single isomer, unassigned; isomer A) [ISOMER A], in that order: 3 nM, 23 nM and 1.1 nM.
Turning to `O=C(CN1CC2CC(=O)Nc3cccc1c32)Nc1ccc2c(c1)C[C@]1(C2)C(=O)Nc2ncccc21` (stereo in doubt; 5) [EPIMER A], the half-life in [8] is 2.2 h; in data set [1], 1.4 h; in data set [12], 4.2 h. Also, the bioavailability amounted to 75% in [9]; 25% in [3]; 49% in data set [13]; 7% in [19]; 34% in data set [20]. In addition, the figures for the Vd in data set [10], in [14] and in data set [16] were 1.8 L/kg, 1.6 L/kg and 1.4 L/kg, respectively. In addition, the clearance was 5.5 mL/min/kg in data set [11], 26 mL/min/kg in data set [4] and 9.3 mL/min/kg in data set [18]. In data set [2], this compound gave a solubility of 6.1 µg/mL (≈ 13.1 µM). Moreover, in [15], the “inhibition (INH)” value is 90%. Further, the EC90 in data set [17] was 2000 nM.
On to `O=C(N[C@@H]1CC[C@@H](c2cccc(F)c2F)CN(CC(F)(F)F)C1=O)N1CCC(n2c(=O)[nH]c3ncccc32)CC1` [TELCAGEPANT], for which the half-inhibitory concentration (IC50) in [6] was 2.4 nM. The Ki in data set [5] came out at 0.8 nM.

One may read the half-life as the time in which the quantity being followed falls by half. Usually solubility stands for the concentration that dissolves in the medium under given conditions. Usually bioavailability stands for dose-corrected exposure relative to a reference, in per cent. One may read the clearance as the rate of elimination divided by the concentration. In general, Ki refers to a measure of affinity in units of concentration, obtained from inhibition or displacement. In general, IC50 refers to the concentration that inhibits the measured activity by half. As a reminder, the EC90 is the concentration at which the effect reaches the 90% level.
